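Where inhibition never reached the appropriate level, the endpoint shown equals the highest concentration tested. Otherwise, values were interpolated linearly from a five-concentration, 48-hour dose response in 96-well plates. GI50 = concentration required for 50% inhibition of growth. TGI marks complete inhibition of growth.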
What was measured:
Test in all cases: NCI tumour cell line growth inhibition, 48 h
786-0 renal = test system: 786-0 renal
A498 renal = test system: A498 renal
A549 NSCLC = test system: A549 NSCLC
ACHN renal = test system: ACHN renal
BT-549 breast = test system: BT-549 breast
CAKI-1 renal = test system: CAKI-1 renal
CCRF-CEM leukemia = test system: CCRF-CEM leukemia
COLO 205 colon = test system: COLO 205 colon
DU-145 prostate = test system: DU-145 prostate
EKVX NSCLC = test system: EKVX NSCLC
HCC-2998 colon = test system: HCC-2998 colon
HCT-116 colon = test system: HCT-116 colon
HCT-15 colon = test system: HCT-15 colon
HL-60(TB) leukemia = test system: HL-60(TB) leukemia
HOP-62 NSCLC = test system: HOP-62 NSCLC
HOP-92 NSCLC = test system: HOP-92 NSCLC
HS 578T breast = test system: HS 578T breast
HT29 colon = test system: HT29 colon
IGROV1 ovarian = test system: IGROV1 ovarian
KM12 colon = test system: KM12 colon
LOX IMVI melanoma = test system: LOX IMVI melanoma
M14 melanoma = test system: M14 melanoma
MALME-3M melanoma = test system: MALME-3M melanoma
MCF7 breast = test system: MCF7 breast
MDA-MB-231 breast = test system: MDA-MB-231 breast
MDA-MB-435 = test system: MDA-MB-435
MOLT-4 leukemia = test system: MOLT-4 leukemia
NCI-H226 lung = test system: NCI-H226 lung
NCI-H23 lung = test system: NCI-H23 lung
NCI-H460 lung = test system: NCI-H460 lung
NCI-H522 lung = test system: NCI-H522 lung
NCI/ADR-RES ovarian = test system: NCI/ADR-RES ovarian
OVCAR-3 ovarian = test system: OVCAR-3 ovarian
OVCAR-4 ovarian = test system: OVCAR-4 ovarian
OVCAR-5 ovarian = test system: OVCAR-5 ovarian
OVCAR-8 ovarian = test system: OVCAR-8 ovarian
PC-3 prostate = test system: PC-3 prostate
RPMI-8226 leukemia = test system: RPMI-8226 leukemia
RXF 393 renal = test system: RXF 393 renal
SF-268 CNS = test system: SF-268 CNS
SF-295 CNS = test system: SF-295 CNS
SF-539 CNS = test system: SF-539 CNS
SK-MEL-2 melanoma = test system: SK-MEL-2 melanoma
SK-MEL-28 melanoma = test system: SK-MEL-28 melanoma
SK-MEL-5 melanoma = test system: SK-MEL-5 melanoma
SK-OV-3 ovarian = test system: SK-OV-3 ovarian
SN12C renal = test system: SN12C renal
SNB-19 CNS = test system: SNB-19 CNS
SNB-75 CNS = test system: SNB-75 CNS
SR leukemia = test system: SR leukemia
SW-620 colon = test system: SW-620 colon
T-47D breast = test system: T-47D breast
TK-10 renal = test system: TK-10 renal
U251 CNS = test system: U251 CNS
UACC-257 melanoma = test system: UACC-257 melanoma
UACC-62 melanoma = test system: UACC-62 melanoma
UO-31 renal = test system: UO-31 renal

Cc1ccc2cc3c(N)c4c(C)ccc(C)c4nc3nc2c1
GI50 (786-0 renal): 6.72 µM
TGI (786-0 renal): 20.5 µM
GI50 (A498 renal): 11.9 µM
TGI (A498 renal): 25.1 µM
GI50 (A549 NSCLC): 1.85 µM
TGI (A549 NSCLC): 3.44 µM
GI50 (ACHN renal): 2.68 µM
TGI (ACHN renal): 13.2 µM
GI50 (BT-549 breast): 14.8 µM
TGI (BT-549 breast): 29.7 µM
GI50 (CAKI-1 renal): 10.2 µM
TGI (CAKI-1 renal): 22 µM
GI50 (CCRF-CEM leukemia): 4.04 µM
TGI (CCRF-CEM leukemia): 36.8 µM
GI50 (COLO 205 colon): 5.77 µM
TGI (COLO 205 colon): 20 µM
GI50 (DU-145 prostate): 5.82 µM
TGI (DU-145 prostate): 18.6 µM
GI50 (EKVX NSCLC): 8.04 µM
TGI (EKVX NSCLC): 21.4 µM
GI50 (HCC-2998 colon): 4.26 µM
TGI (HCC-2998 colon): 14.8 µM
GI50 (HCT-116 colon): 1.68 µM
TGI (HCT-116 colon): 3.27 µM
GI50 (HCT-15 colon): 1.33 µM
TGI (HCT-15 colon): 10.3 µM
GI50 (HL-60(TB) leukemia): 18.7 µM
TGI (HL-60(TB) leukemia): 40.8 µM
GI50 (HOP-62 NSCLC): 9.79 µM
TGI (HOP-62 NSCLC): 25.5 µM
GI50 (HOP-92 NSCLC): 1.87 µM
TGI (HOP-92 NSCLC): 16.5 µM
GI50 (HS 578T breast): 12.8 µM
TGI (HS 578T breast): 34.5 µM
GI50 (HT29 colon): 2.89 µM
TGI (HT29 colon): 12.9 µM
GI50 (IGROV1 ovarian): 6.73 µM
TGI (IGROV1 ovarian): 22.3 µM
GI50 (KM12 colon): 2.12 µM
TGI (KM12 colon): 16.9 µM
GI50 (LOX IMVI melanoma): 1.65 µM
TGI (LOX IMVI melanoma): 3.4 µM
GI50 (M14 melanoma): 12.4 µM
TGI (M14 melanoma): 26.7 µM
GI50 (MALME-3M melanoma): 17.7 µM
TGI (MALME-3M melanoma): 36.1 µM
GI50 (MCF7 breast): 1.44 µM
TGI (MCF7 breast): 2.98 µM
GI50 (MDA-MB-231 breast): 3.17 µM
TGI (MDA-MB-231 breast): 20.4 µM
GI50 (MDA-MB-435): 10.9 µM
TGI (MDA-MB-435): 23.4 µM
GI50 (MOLT-4 leukemia): 3.49 µM
TGI (MOLT-4 leukemia): 21.7 µM
GI50 (NCI-H226 lung): 13.1 µM
TGI (NCI-H226 lung): 29.5 µM
GI50 (NCI-H23 lung): 11.6 µM
TGI (NCI-H23 lung): 28.6 µM
GI50 (NCI-H460 lung): 1.84 µM
TGI (NCI-H460 lung): 3.77 µM
GI50 (NCI-H522 lung): 3.74 µM
TGI (NCI-H522 lung): 20.7 µM
GI50 (NCI/ADR-RES ovarian): 2.95 µM
TGI (NCI/ADR-RES ovarian): 16.7 µM
GI50 (OVCAR-3 ovarian): 6.12 µM
TGI (OVCAR-3 ovarian): 21.1 µM
GI50 (OVCAR-4 ovarian): 3.79 µM
TGI (OVCAR-4 ovarian): 14.8 µM
GI50 (OVCAR-5 ovarian): 1.99 µM
TGI (OVCAR-5 ovarian): 5.05 µM
GI50 (OVCAR-8 ovarian): 5.64 µM
TGI (OVCAR-8 ovarian): 23.5 µM
GI50 (PC-3 prostate): 6.89 µM
TGI (PC-3 prostate): 21.6 µM
GI50 (RPMI-8226 leukemia): 2.02 µM
TGI (RPMI-8226 leukemia): 5.27 µM
GI50 (RXF 393 renal): 1.8 µM
TGI (RXF 393 renal): 3.62 µM
GI50 (SF-268 CNS): 11.8 µM
TGI (SF-268 CNS): 25.8 µM
GI50 (SF-295 CNS): 1.66 µM
TGI (SF-295 CNS): 3.05 µM
GI50 (SF-539 CNS): 7.97 µM
TGI (SF-539 CNS): 23.1 µM
GI50 (SK-MEL-2 melanoma): 14 µM
TGI (SK-MEL-2 melanoma): 29.3 µM
GI50 (SK-MEL-28 melanoma): 13.7 µM
TGI (SK-MEL-28 melanoma): 28.5 µM
GI50 (SK-MEL-5 melanoma): 8.14 µM
TGI (SK-MEL-5 melanoma): 21 µM
GI50 (SK-OV-3 ovarian): 11.4 µM
TGI (SK-OV-3 ovarian): 24 µM
GI50 (SN12C renal): 6.75 µM
TGI (SN12C renal): 21 µM
GI50 (SNB-19 CNS): 7.02 µM
TGI (SNB-19 CNS): 23.8 µM
GI50 (SNB-75 CNS): 5.97 µM
TGI (SNB-75 CNS): 20.7 µM
GI50 (SR leukemia): 2.3 µM
TGI (SR leukemia): 7.33 µM
GI50 (SW-620 colon): 2.81 µM
TGI (SW-620 colon): 15.3 µM
GI50 (T-47D breast): 2.14 µM
TGI (T-47D breast): 6.1 µM
GI50 (TK-10 renal): 12.2 µM
TGI (TK-10 renal): 25.5 µM
GI50 (U251 CNS): 4.58 µM
TGI (U251 CNS): 18.1 µM
GI50 (UACC-257 melanoma): 14.2 µM
TGI (UACC-257 melanoma): 28.6 µM
GI50 (UACC-62 melanoma): 7.72 µM
TGI (UACC-62 melanoma): 22 µM
GI50 (UO-31 renal): 3.6 µM
TGI (UO-31 renal): 19.6 µM

— PubChem BioAssay (NCI)
